Target: PKMYT1 (Homo sapiens (Human), UniProt Q99640)
Assay: In vitro assay: kinase binding to immobilized ligand, captured kinase measured by qPCR

PKMYT1, sequence (Q99640 whole entry): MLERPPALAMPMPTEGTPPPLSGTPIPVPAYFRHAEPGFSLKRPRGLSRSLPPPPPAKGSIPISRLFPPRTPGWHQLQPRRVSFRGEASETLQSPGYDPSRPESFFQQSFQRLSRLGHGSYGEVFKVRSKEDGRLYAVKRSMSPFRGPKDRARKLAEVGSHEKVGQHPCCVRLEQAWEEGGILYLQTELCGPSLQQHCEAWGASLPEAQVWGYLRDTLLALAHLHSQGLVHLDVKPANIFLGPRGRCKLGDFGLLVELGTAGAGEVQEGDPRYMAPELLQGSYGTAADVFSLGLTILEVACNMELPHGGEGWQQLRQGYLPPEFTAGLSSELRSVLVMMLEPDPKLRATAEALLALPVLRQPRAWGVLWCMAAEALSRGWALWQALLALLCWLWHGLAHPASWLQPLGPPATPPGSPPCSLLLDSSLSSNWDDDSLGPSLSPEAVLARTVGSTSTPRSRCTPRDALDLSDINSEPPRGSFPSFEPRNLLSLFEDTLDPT

Structure (SMILES)	IC50 [nM]
Cc1ccn2c(-c3c(C)ccc(O)c3C)c(N)c(C(N)=O)c2n1 [Compound 550, 7-amino-6-(3-hydroxy-2,6-dimethyl-phenyl)-2-methyl-pyrrolo[1,2-a]pyrimidine-8-carboxamide]	100 to 1000
Cc1cc2c(C(N)=O)c(N)n(-c3c(C)cc4c(c3C)OCC4)c2nc1C [Compound 675]	> 1000
Cc1cnc2c(c1)c(C(N)=O)c(N)n2-c1c(C)ccc2ocnc12 [Compound 553, 2-amino-5-methyl-1-(5-methylbenzo[d]oxazol-4-yl)-1H-pyrrolo[2,3-b]pyridine-3-carboxamide]	100 to 1000
Cc1ccc(O)c(C)c1-n1c(N)c(C(N)=O)c2cc3c(nc21)OCCN3C [Compound 568, 7-amino-6-(3-hydroxy-2,6-dimethylphenyl)-1-methyl-1,2,3,6-tetrahydropyrrolo [3′,2′:5,6]pyrido[2,3-b][1,4]oxazine-8-carboxamide]	< 50
Cc1cn2c(C(N)=O)c(N)c(-c3c(C)ccc(O)c3C)c2cn1 [Compound 555, 7-amino-8-(3-hydroxy-2,6-dimethyl-phenyl)-3-methyl-pyrrolo[1,2-a]pyrazine-6-carboxamide]	< 50
Cc1ccc(O)c(C)c1-n1c(N)c(C(N)=O)c2cncnc21 (single isomer, unassigned) [Compound 571, 6-amino-7-(3-hydroxy-2,6-dimethylphenyl)-7H-pyrrolo[2,3-d]pyrimidine-5-carboxamide]	100 to 1000
Cc1ccn2c(-c3c(C)ccc(O)c3C)c(N)c(C(N)=O)c2c1 [Compound 552, 2-amino-3-(3-hydroxy-2,6-dimethylphenyl)-7-methylindolizine-1-carboxamide]	100 to 1000
Cc1ccc(O)c(C)c1-c1c(N)c(C(N)=O)c2nccc(C)n12 [Compound 548, 7-amino-6-(3-hydroxy-2,6-dimethyl-phenyl)-4-methyl-pyrrolo[1,2-a]pyrimidine-8-carboxamide]	100 to 1000
Cc1ccc(O)c(C)c1-n1c(N)c(C(N)=O)c2cnc(N[C@@H]3CCC[C@H]3O)nc21 [Compound 580, 6-amino-7-(3-hydroxy-2,6-dimethylphenyl)-2-(((1R,2R)-2-hydroxycyclopentyl)amino)-7H-pyrrolo[2,3-d]pyrimidine-5-carboxamide]	< 50
Cc1ccc(O)c(C)c1-n1c(N)c(C(N)=O)c2cnc(S(C)(=O)=O)nc21 [Compound 625, 6-amino-7-(3-hydroxy-2,6-dimethylphenyl)-2-(methylsulfonyl)-7H-pyrrolo[2,3-d]pyrimidine-5-carboxamide]	< 50
Cc1ccc(O)c(C)c1-n1c(N)c(C(N)=O)c2cnc(N3CC[C@@H](O)C3)nc21 [Compound 583, 6-amino-7-(3-hydroxy-2,6-dimethyl-phenyl)-2-[(3R)-3-hydroxypyrrolidin-1-yl]pyrrolo[2,3-d]pyrimidine-5-carboxamide]	< 50
Cc1ccc(O)c(C)c1-n1c(N)c(C(N)=O)c2cnc(C#Cc3ccc(F)cc3)c(F)c21 [Compound 622, 2-amino-7-fluoro-6-((4-fluorophenyl)ethynyl)-1-(3-hydroxy-2,6-dimethylphenyl)-1H-pyrrolo[3,2-c]pyridine-3-carboxamide]	50 to 100
Cc1ccc(O)c(C)c1-n1c(N)c(C(N)=O)c2cnc(NCCO)nc21 (single isomer, unassigned) [Compound 585, 6-amino-7-(3-hydroxy-2,6-dimethylphenyl)-2-((2-hydroxyethyl)amino)-7H-pyrrolo[2,3-d]pyrimidine-5-carboxamide]	> 1000
Cc1ccc(O)c(C)c1-n1c(N)c(C(N)=O)c2cncc(F)c21 (atropisomer, axis not shown) [Compound 624, 2-amino-7-fluoro-1-(3-hydroxy-2,6-dimethyl-phenyl)pyrrolo[3,2-c]pyridine-3-carboxamide]	< 50
Cc1ccc(O)c(C)c1-n1c(N)c(C(N)=O)c2cnc(C#CC3CC3)nc21 [Compound 621]	< 50
Cc1ccc(O)c(C)c1-n1c(N)c(C(N)=O)c2cnc(N3CC(O)C3)nc21 [Compound 573]	< 50
Cc1ccc(O)c(C)c1-n1c(N)c(C(N)=O)c2cnc(N[C@@H]3CCC[C@@H]3O)nc21 (atropisomer, axis not shown) [Compound 591]	50 to 100
Cc1ccc(O)c(C)c1-n1c(N)c(C(N)=O)c2cnc(N[C@H]3CCC[C@@H]3O)nc21 [Compound 579, 6-amino-7-(3-hydroxy-2,6-dimethylphenyl)-2-(((1S,2S)-2-hydroxycyclopentyl)amino)-7H-pyrrolo[2,3-d]pyrimidine-5-carboxamide]	< 50
Cc1ccc(O)c(C)c1-n1c(N)c(C(N)=O)c2cc3c(nc21)CCN3 [Compound 620]	< 50
Cc1cc2c(c(C)c1-n1c(N)c(C(N)=O)c3cc(Cl)cnc31)OCO2 [Compound 546, 2-amino-5-chloro-1-(4,6-dimethylbenzo[d][1,3]dioxol-5-yl)-1H-pyrrolo[2,3-b]pyridine-3-carboxamide]	> 1000
Cc1ccc(O)c(C)c1-n1c(N)c(C(N)=O)c2cnc(NC(=O)[C@H]3CCCN3)nc21 [Compound 584, 6-amino-7-(3-hydroxy-2,6-dimethylphenyl)-2-(pyrrolidine-2-carboxamido)-7H-pyrrolo[2,3-d]pyrimidine-5-carboxamide]	100 to 1000

Further lines, results first:

IC50 [nM]	Structure (SMILES)
< 50	Cc1ncc2c(C(N)=O)c(N)n(-c3c(C)c(O)cc(F)c3C)c2n1 [Compound 595, 6-amino-7-(3-fluoro-5-hydroxy-2,6-dimethyl-phenyl)-2-methyl-pyrrolo[2,3-d]pyrimidine-5-carboxamide]
< 50	Cc1ccc(O)c(C)c1-n1c(N)c(C(N)=O)c2cnc(Cl)nc21 [Compound 618, 6-amino-2-chloro-7-(3-hydroxy-2,6-dimethylphenyl)-7H-pyrrolo[2,3-d]pyrimidine-5-carboxamide]
< 50	Cc1ccc(O)c(C)c1-n1c(N)c(C(N)=O)c2cnc(C(F)(F)F)nc21 [Compound 608, 6-amino-7-(3-hydroxy-2,6-dimethylphenyl)-2-(trifluoromethyl)-7H-pyrrolo[2,3-d]pyrimidine-5-carboxamide]
< 50	Cc1ccc(O)c(C)c1-n1c(N)c(C(N)=O)c2cnc(N3CC[C@H](O)C3)nc21 [Compound 581, 6-amino-7-(3-hydroxy-2,6-dimethyl-phenyl)-2-[(3S)-3-hydroxypyrrolidin-1-yl]pyrrolo[2,3-d]pyrimidine-5-carboxamide]
< 50	Cc1ncc2c(C(N)=O)c(N)n(-c3c(C)c(O)cc(F)c3C)c2n1 (atropisomer, axis not shown) [Compound 606, 6-amino-7-(3-fluoro-5-hydroxy-2,6-dimethyl-phenyl)-2-methyl-pyrrolo[2,3-d]pyrimidine-5-carboxamide]
< 50	Cc1c(O)cc(F)c(C)c1-n1c(N)c(C(N)=O)c2cnc(C3CC3)c(C#N)c21 [Compound 663, 2-amino-7-cyano-6-cyclopropyl-1-(3-fluoro-5-hydroxy-2,6-dimethyl-phenyl)pyrrolo[3,2-c]pyridine-3-carboxamide]
< 50	Cc1ncc2c(C(N)=O)c(N)n(-c3c(C)c(O)cc(Cl)c3C)c2n1 [Compound 619, 6-amino-7-(3-chloro-5-hydroxy-2,6-dimethylphenyl)-2-methyl-7H-pyrrolo[2,3-d]pyrimidine-5-carboxamide]
< 50	Cc1ccc(O)c(C)c1-n1c(N)c(C(N)=O)c2c(C)ncc(F)c21 [Compound 582, 2-amino-7-fluoro-1-(3-hydroxy-2,6-dimethyl-phenyl)-4-methyl-pyrrolo[3,2-c]pyridine-3-carboxamide]
< 50	Cc1c(O)cc(F)c(C)c1-n1c(N)c(C(N)=O)c2cnc(C3CC3)c(F)c21 [Compound 623, 2-amino-6-cyclopropyl-7-fluoro-1-(3-fluoro-5-hydroxy-2,6-dimethyl-phenyl)pyrrolo[3,2-c]pyridine-3-carboxamide]
< 50	Cc1ccc(O)c(C)c1-n1c(N)c(C(N)=O)c2cncc(C#N)c21 [Compound 587, 2-amino-7-cyano-1-(3-hydroxy-2,6-dimethylphenyl)-1H-pyrrolo[3,2-c]pyridine-3-carboxamide]
< 50	Cc1ccc(O)c(C)c1-n1c(N)c(C(N)=O)c2cnc(NCCO)nc21 (atropisomer, axis not shown) [Compound 588, 6-amino-7-(3-hydroxy-2,6-dimethylphenyl)-2-((2-hydroxyethyl)amino)-7H-pyrrolo[2,3-d]pyrimidine-5-carboxamide]
< 50	CCN(CC)c1ncc2c(C(N)=O)c(N)n(-c3c(C)ccc(O)c3C)c2n1 [Compound 609, 6-amino-2-(diethylamino)-7-(3-hydroxy-2,6-dimethylphenyl)-7H-pyrrolo[2,3-d]pyrimidine-5-carboxamide]

Target: LCK (Homo sapiens (Human), UniProt P06239)
Sequence (P06239 whole entry): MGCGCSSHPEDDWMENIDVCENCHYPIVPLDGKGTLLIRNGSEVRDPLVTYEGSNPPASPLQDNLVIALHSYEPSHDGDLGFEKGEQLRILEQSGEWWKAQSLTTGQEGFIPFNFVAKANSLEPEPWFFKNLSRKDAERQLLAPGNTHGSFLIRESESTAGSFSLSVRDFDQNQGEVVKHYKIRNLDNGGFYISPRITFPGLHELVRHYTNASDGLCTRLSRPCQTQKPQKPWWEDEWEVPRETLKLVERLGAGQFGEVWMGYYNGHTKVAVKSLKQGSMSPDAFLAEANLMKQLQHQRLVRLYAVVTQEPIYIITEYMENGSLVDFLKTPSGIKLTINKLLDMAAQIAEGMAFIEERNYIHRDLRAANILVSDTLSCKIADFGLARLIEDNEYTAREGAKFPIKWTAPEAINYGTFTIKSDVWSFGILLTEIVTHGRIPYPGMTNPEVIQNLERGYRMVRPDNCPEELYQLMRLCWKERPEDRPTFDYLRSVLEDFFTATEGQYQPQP
Assay: as above
Source text: Example B-1: In Vitro Assay
Compounds that bind the kinase active site and directly (sterically) or indirectly (allosterically) prevent kinase binding to an immobilized ligand and reduce the amount of kinase captured on the solid support. Screening “hits” were identified by measuring the amount of kinase captured in test versus control samples by using a quantitative, precise and ultra-sensitive qPCR method that detect the associated DNA label. In a similar manner, dissociation constants (Kd's) for test compound-kinase interactions were calculated by measuring the amount of kinase captured on the solid support as a function of the test compound concentration.

Structure (SMILES)	IC50 [nM]
Cc1cc2c(C(N)=O)c(N)n(-c3c(C)cc4c(c3C)OCC4)c2nc1C [Compound 675]	100 to 1000
Cc1ncc2c(C(N)=O)c(N)n(-c3c(C)ccc(O)c3C)c2n1 (single isomer, unassigned) [Compound 577, 6-amino-7-(3-hydroxy-2,6-dimethyl-phenyl)-2-methyl-pyrrolo[2,3-d]pyrimidine-5-carboxamide]	< 50
Cc1cc2c(C(N)=O)c(N)n(-c3c(C)ncc(O)c3C)c2nc1C [Compound 560, 2-amino-1-(5-hydroxy-2,4-dimethylpyridin-3-yl)-5,6-dimethyl-1H-pyrrolo[2,3-b]pyridine-3-carboxamide]	100 to 1000
Cc1c(O)cc(F)c(C)c1-n1c(N)c(C(N)=O)c2cnc(C3CC3)c(F)c21 (atropisomer, axis not shown) [Compound 655]	< 50
Cc1ncc2c(C(N)=O)c(N)n(-c3c(C)ccc(O)c3C)c2n1 (single isomer, unassigned) [Compound 578, 6-amino-7-(3-hydroxy-2,6-dimethyl-phenyl)-2-methyl-pyrrolo[2,3-d]pyrimidine-5-carboxamide]	> 1000

Now from value to compound:

IC50 [nM]	Structure (SMILES)
< 50	Cc1ncc2c(C(N)=O)c(N)n(-c3c(C)c(O)cc(F)c3C)c2n1 (atropisomer, axis not shown) [Compound 606, 6-amino-7-(3-fluoro-5-hydroxy-2,6-dimethyl-phenyl)-2-methyl-pyrrolo[2,3-d]pyrimidine-5-carboxamide]
< 50	Cc1c(O)cc(F)c(C)c1-n1c(N)c(C(N)=O)c2cnc(C3CC3)c(C#N)c21 [Compound 663, 2-amino-7-cyano-6-cyclopropyl-1-(3-fluoro-5-hydroxy-2,6-dimethyl-phenyl)pyrrolo[3,2-c]pyridine-3-carboxamide]

Reference: patent US20250388583A1, “COMPOUNDS AND METHOD FOR PKMYT1 INHIBITION” (Engine Biosciences Pte. Ltd., priority 2022, published 2025)
